Measurements taken from patent publication US9259399B2, “Targeting CDK4 and CDK6 in cancer therapy” (Cornell University, priority 2007, dated 2016).
“Also recorded” adds a separate entry of the source. Residues, ends and D or L forms follow the SMILES beside them. *: point of attachment. Cbz = O=C(OCc1ccccc1)*; CH2F = FC*

Columns and labels:
[1] = tested on: MM1.S cells; test: Apoptosis pathway in myeloma cells (caspase/PARP cleavage, Bcl-2 family mRNA and protein, Smac release); assay type: cell-based, human
Description: Total RNA was isolated using the TRIzol reagent (Invitrogen). […] Reactions were carried out in triplicate in the ABI PRISM 7900 HT Sequence Detection System. The relative amount of products was determined by the comparative Ct method according to the manufacturer's instructions. Viable cells were obtained by Ficoll density centrifugation (GE Healthcare, Piscataway, N.J.). Cytosolic and mitochondrial fractions were isolated as described (Yang et al., 1997). Whole cells or purified mitochondria were lysed in a buffer containing 10 mM Tris-HCl, pH 7.5, 150 mM NaCl, 5 mM EDTA, 1% Triton X-100, and protease inhibitors. For detection of phosphorylated Stat3, cells were lysed in a buffer containing 20 mM Tris, pH 7.5, 150 mM NaCl, 1 mM EDTA, 1 mM EGTA, 1% Triton X-100, 2.5 mM sodium pyrophosphate, 1 mM β-glycerophosphate, 1 mM Na3VO4, and protease inhibitors. Immunoblotting was performed as described in Huang et al. (2004). Signals were developed with the SuperSignal West Femto Maximum Sensitivity Substrate (Pierce Biotechnology, Rockford, Ill.). For immunoprecipitation, lysate (50 μg of protein) was precleared with 20 μl of Protein G PLUS-agarose beads (Santa Cruz Biotechnology, Santa Cruz, Calif.) and incubated with rabbit anti-Bim, anti Bcl-XL (Cell signaling Technology), anti-Mcl1 (Santa Cruz), anti-Bak (Sigma) or mouse anti-Bcl-2 (DakoCytomation, Carpinteria, Calif.) overnight at 4° C. The immunocomplexes were collected by incubation with Protein G PLUS-agarose beads (Santa Cruz) and centrifugation. These immunocomplex samples were then analyzed by immunoblotting.

[2] = tested on: at least thirty-eight other types of kinases, including CDK2; conditions: at concentrations below 5 μM, at least 38 other kinases; cited from earlier work
[3] = tested on: MM1.S and MM1.R human myeloma cell lines; test: Cytotoxic killing of myeloma cell lines (viability, mitochondrial membrane depolarization)
[4] = tested on: primary CD138+ human BM myeloma (BMM) cells; test: Killing of primary myeloma cells co-cultured with HS-5 stromal cells; conditions: for reduction of live BMM cells: 24 hours ex vivo, PD 0332991 1-2 μM
[5] = tested on: IL-6Rα, gp130, Stat3; test: IL-6 signaling in myeloma cells (surface IL-6Rα, gp130, p-Stat3); assay type: cell-based, human; conditions: for expression of surface IL-6Rα (gp80): PD 0332991 0.25 μM, bortezomib 4 nM; for surface gp130: PD 0332991, bortezomib 4 nM, or both
Description: Viable cells were obtained by Ficoll density centrifugation (GE Healthcare, Piscataway, N.J.). Cytosolic and mitochondrial fractions were isolated as described (Yang et al., 1997). Whole cells or purified mitochondria were lysed in a buffer containing 10 mM Tris-HCl, pH 7.5, 150 mM NaCl, 5 mM EDTA, 1% Triton X-100, and protease inhibitors. For detection of phosphorylated Stat3, cells were lysed in a buffer containing 20 mM Tris, pH 7.5, 150 mM NaCl, 1 mM EDTA, 1 mM EGTA, 1% Triton X-100, 2.5 mM sodium pyrophosphate, 1 mM β-glycerophosphate, 1 mM Na3VO4, and protease inhibitors. Immunoblotting was performed as described in Huang et al. (2004). Signals were developed with the SuperSignal West Femto Maximum Sensitivity Substrate (Pierce Biotechnology, Rockford, Ill.).

[6] = tested on: myeloma, AML and solid tumor xenograft; conditions: cited from earlier work
[7] = tested on: CAG NOD/SCID myeloma model; conditions: 150 mg/kg; by day 9; cited from earlier work
[8] = tested on: retinoblastoma (Rb)-positive tumor cells; conditions: cited from earlier work
[9] = tested on: CDK4 and CDK6; test: Phase I/II clinical trial in multiple myeloma; assay type: in vivo; conditions: within the tolerable dose in humans; preliminary data
[10] = tested on: human osteoclast cultures; test: Osteoclast formation from bone marrow cells of multiple myeloma patients; assay type: cell-based
Description: Non-adherent mononuclear bone marrow cells from multiple myeloma patients were cultured in the presence of macrophage colony stimulating factor (M-CSF) and Receptor Activator for Nuclear Factor κ[…] (RANKL) for three weeks.

[11] = tested on: HMCLs, including MM1.S; test: BrdU-uptake and DNA content (cell cycle) in human myeloma cell lines; assay type: cell-based; conditions: for proportion of cells in S phase: PD 0332991 0.25 μM 24 h
Description: Cells were incubated with 5-bromo-2-deoxyuridine (BrdU, 5 μg/ml; Sigma) at 37° C. for 30 min (HMCLs) or 16 h (BMM cells). Cells were fixed with 70% ethanol overnight at 4° C., incubated with 0.4 mg/ml pepsin for 20 min at room temperature and 2N HCl for 10 min at 37° C. Samples were washed with 50 mM sodium borate (pH 8.5) and then 0.1% BSA/PBS. To detect BrdU, cells were incubated with a FITC-conjugated anti-BrdU mouse mAb (Roche Diagnostics, Pleasanton, Calif.) for 30 min at room temperature. For DNA content analysis, cells were incubated further with 50 μg/ml propidium iodide and 100 U/ml ribonuclease A (Sigma) for 30 min at 37° C. Samples were analyzed by flow cytometry.

[12] = tested on: Luc+GFP+MM1.S cells; test: NOD/SCID xenograft human myeloma model (bioluminescence imaging); assay type: in vivo, NOD/SCID mice; conditions: for MMD in human myeloma cells vs mouse BM cells in vivo: bortezomib 0.25 mg/kg, with or without PD 0332991 150 mg/kg pretreatment; for tumor development (BLI): day 8, PD 0332991 150 mg/kg daily 3 days, bortezomib 0.25 mg/kg days 4 and 7
[13] = tested on: CDK4/6; conditions: mantle cell lymphoma and acute myeloid leukemia cells ex vivo; cited from earlier work
[14] = tested on: CDK4 and CDK6; conditions: cited from earlier work

In the case of CC(=O)c1c(C)c2cnc(Nc3ccc(N4CCNCC4)cn3)nc2n(C2CCCC2)c1=O [PD 0332991, 6-acetyl-8-cyclopentyl-5-methyl-2-[5-piperazin-1-yl-pyridin-2-ylamino)-8H-pyrido[2,3-d]pyrimidin-7-one], the “activation of caspase-8 by bortezomib after prior PD 0332991 treatment” value [1] is listed as “similarly augmented”, the “Noxa mRNA and protein” value ([1]; following PD 0332991-induced G1 arrest) is listed as “no longer detectable” and the “activity against other kinases” value [2] is listed as “does not cross react; also recorded: little or no activity”. The “killing of Dex-resistant MM1.R cells by low dose bortezomib after PD 0332991” value ([3]; MM1.R cells, 24 hours) was “virtual eradication of cells”, the “bortezomib killing after prior G1 arrest” value ([3]; PD 0332991 24 h, then bortezomib at high dose (250 nM) for 1 h, analysed 6 h later) was “profoundly enhanced” and the “killing by low dose bortezomib added after PD 0332991 vs concurrently” value ([3]; bortezomib 2-6 nM added 24 or 48 hours after PD 0332991) was “greater”. The “MMD and viability, bortezomib added upon removal of PD 0332991 vs unsynchronized cells” value ([3]; bortezomib 4 or 6 nM, continuous) was “greater MMD and loss of viability”, the “bortezomib killing during synchronous G1-S transition” value ([3]; bortezomib pulse at 4 hours post PD 0332991 removal) was “augmented further” and the “MMD and cytotoxic killing by low dose dexamethasone after G1 arrest” value ([3]; dexamethasone 5-50 nM) was “augmented”. For the same compound, the “reduction of live BMM cells” value [4] was “greater”, the “sensitization of BMM cells from bortezomib-refractory patients (MM10)” value ([4]; PD 0332991 pretreatment 4 hours) was “sufficient to sensitize” and the “sensitization of other bortezomib-refractory BMM cells (MM 8, MM 9)” value ([4]; PD 0332991 pretreatment 24 hours) was “susceptible to bortezomib killing”. For the same compound, the “bortezomib killing after PD 0332991 pretreatment” value ([4]; pretreatment 4-24 hours) was “markedly augmented”, the Stat3 protein [5] was “reduction of Stat3 protein” and the “expression of surface IL-6Rα (gp80)” value [5] was “virtually eliminated”. For the same compound, the “surface gp130” value [5] was “only modestly”, the “myeloma tumor growth upon discontinuation” value ([6]; after discontinuation of PD 0332991) was “resumed upon discontinuation” and the tumor growth ([6]; myeloma, AML and solid tumor xenograft models) was “suppressed tumor growth”. For the same compound, the tumor burden [7] was “reduced tumor burden profoundly”, the anti-proliferative activity [8] was “potent anti-proliferative agent” and the “inhibition of CDK4 and CDK6 and tumor cell division in patients” value [9] was “completely inhibits”. The IC50 ([10]; Homo sapiens, Osteoclast, 504 h, treatment for 3 weeks) was 50 nM, the “time course of treatment on osteoclast formation” value ([10]; first week, but not second or third week) was “sufficient to inhibit osteoclast formation” and the “time G1 arrest and synchronous S phase entry were maintained in the absence of apoptosis” value ([11]; MM1.S cells cultured with PD 0332991) was “at least 6 days”. For the same compound, the G1 arrest ([11]; PD 0332991 0.25 μM) was “complete G1 arrest; also recorded: marked accumulation of G1 cells”, the “proportion of cells in S phase” value ([11]; 12 hours after removal) was 65% and the “proportion of cells in S phase” value ([11]; 18 hours after removal) was 67%. The “MMD in human myeloma cells vs mouse BM cells in vivo” value [12] was “augmented”, the “tumor development (BLI)” value [12] was “only modestly reduced” and the “inhibition of CDK4/6” value [13] was “effectively inhibited”. For the same compound, the IC50 ([14]; freshly isolated primary human BMM cells and HMCLs ex vivo, read-out: IC50, inhibition of CDK4 and CDK6) was 60 nM and the “cell cycle outcome of CDK4/CDK6 inhibition” value ([14]; primary BMM cells and HMCLs) was “exclusive G1 arrest unaccompanied by apoptosis; also recorded: exclusive G1 arrest in the absence of apoptosis”.
For CC(C)C[C@H](NC(=O)[C@H](Cc1ccccc1)NC(=O)c1cnccn1)B(O)O [bortezomib], the “TRAIL mRNA” value ([1]; q-RT-PCR) was “marginal increase”, the “Bim and MCL-1 mRNAs” value ([1]; q-RT-PCR, bortezomib 4 nM 12 h, with or without PD 0332991 0.25 μM 24 h) was “coordinately elevated” and the “reduction of live BMM cells” value [4] was “greater”. The “expression of surface IL-6Rα (gp80)” value [5] was “did not vary”, the “surface gp130” value [5] was “only modestly” and the “cell cycle effect of bortezomib alone” value ([11]; bortezomib 6 nM alone) was “striking loss of cells in the S phase”. The “MMD in human myeloma cells vs mouse BM cells in vivo” value [12] was “differentially induced” and the “tumor development (BLI)” value [12] was “only modestly reduced”.
For COC(=O)C[C@H](NC(=O)[C@H](C)NC(=O)[C@@H](NC(=O)OCc1ccccc1)C(C)C)C(=O)CF [ZVAD-FMK] (Cbz-Val-Ala-Asp(OMe)-CH2F), the “killing by PD-B in the presence of pan-caspase inhibitor” value [1] was “completely inhibited”.
